Measured values taken from patent US20190247376A1, “NICOTINIC ACETYLCHOLINE RECEPTOR AGONIST ATTENUATES ILC2-DEPENDENT AIRWAY HYPERREACTIVITY” (University of Southern California, priority 2016, published 2019).

System: lung ILC2s
Test: Flow cytometry of proliferation, transcription factor and signalling markers in lung ILC2s
Assay type: cell-based, mouse
Source text: FIGS. 5A-5F: Cholinergic signal attenuates ILC2 proliferation and GATA3 expression. (FIG. 5A) Mean fluorescence intensity of Ki67 and percentage of Ki67+ cells in isolated lung ILC2s, stimulated with IL-33 in the absence and presence of α7nAChR. (FIG. 5B) Mean fluorescence intensity of GATA3 in isolated lung ILC2s, stimulated with IL-33 in the absence and presence of α7nAChR. One representative experiment of two is shown (n=5; Student's t test *, p<0.05; **, p<0.01; ***p<0.001). […] FACS-purified ILC2s from WT mice challenged with rm-IL-33 with or without α7nAChR agonist as described in FIG. 3A were quantified by NanoString nCounter technology. Data range from −1 to +1 for the most reduced and most increased gene expression, respectively. (FIG. 5D) Expression of NF-κB p65 in isolated lung ILC2s from mice challenged with IL-33 with (dotted line) or without (thick line) α7nAChR agonist. The level of isotype-matched stain control is shown as a gray-filled histogram. (FIG. 5E) Expression of phosphorylated IKKα/β (Ser176/180) in isolated lung ILC2s stimulated with IL-33, with (dotted line) or without (thick line) α7nAChR agonist for 24 hours. The level of isotype-matched stain control is shown as a gray-filled histogram. (FIG. 5F) Mean fluorescence intensity of phosphorylated IKKα/β with or without α7nAChR agonist.
FIGS. 9A-9C: Effect of α7nAChR agonist on some marker expressions by ILC2s. A cohort of BALB/cByJ mice were intranasally challenged with rm-IL-33 (0.5 μg) with or without α7nAChR agonist (125 μg) for three consecutive days. Histogram and MFI of CD25 (FIG. 9A), CD127 (FIG. 9B) and ST2 (FIG. 9C) in isolated lung ILC2s. Data are representative of at least two independent experiments and are presented as means±SEM (n=4; Student's t test *, p<0.05).
Biotinylated anti-mouse lineage (CD3e (145-2C11), CD45R (RA3-3B2), Gr-1 (RB6-8C5), CD11c (N418), CD11b (M1/70), Ter119 (TER-119), NK1.1 (PK136), TCR-β (H57-597), TCR-γδ (GL3), and FcεRIα (MAR-1), Streptavidin-FITC, FITC anti-mouse CD3 (145-2C11), BV510 anti-mouse CD4 (RM4-5), APC-Cy7 anti-mouse CD25 (PC61), PE anti-mouse CD25 (PC61), BV421 anti-mouse CD25 (PC61), BV510 anti-mouse CD90.2 (53-2.1), APC anti-mouse CD127 (A7R34), PE-Cy7 anti-mouse CD127 (A7R34), FITC anti-mouse CD45 (30F-11), PE/Cy7 anti-mouse CD45 (30-F11), PE anti-mouse IL-5 (TRFK5), BV421 anti-mouse GATA3 (16E10A23), 7-AAD Viability staining solution, purchased from BioLegend (San Diego, Calif.). PE anti-mouse ST2 (IL-33R, RMST2-2), PerCP-eFluor710 anti-Mouse ST2 (RMST2-2), Streptavidin APC-eFluor780, Alexa Fluor647 labeled anti-IL-4 (clone 11B11), eFluor 450 anti-mouse CD45 (30F-11), eFluor450 anti-CD44 (clone IM7), eFluor-660 anti-mouse Ki-67 (SollA15), PE/Cy7 anti-mouse IL-13 (eBio13A), anti-mouse BCL-2 (10C4), were purchased from eBioscience. Alexa Fluor 488 anti-mouse p65-NF-κB (532301) was purchased from R&D Systems (dilution 1:50). Alexa Fluor 647 conjugated α-bungarotoxin (Invitrogen, San Diego, Calif.). PE anti-mouse Phospho-IKKα/β (Ser 176/180) (16A6) was purchased from Cell Signaling Technology (dilution 1:50). PE anti-rat α7nAChR (319) was purchased from Santa Cruz Biotechnology (dilution 1:50). This antibody has been used to identify this receptor previously in several studies^69. Lineage marker antibodies were used at the dilution of 1:400, unless mentioned otherwise other antibodies were used at the dilution of 1:200.
Intracellular staining was performed using BD Cytofix/Cytoperm kit (BD Bioscience, San Jose, Calif.) according to the manufacturer's instructions. For analysis of GATA3 and Ki-67 expression, freshly isolated cells were fixed and permeabilized using Fixation/Permeabilization buffer kit (eBioscience) according to the manufacturer's instructions and as previously described^70.

For `COc1ccc(/C=C2\CCCN=C2c2cccnc2)c(OC)c1` [GTS-21, 3-[(3E)-3-[(2,4-dimethoxyphenyl)methylidene]-5,6-dihydro-4H-pyridin-2-yl]pyridine], the “expression of anti-apoptotic factor Bcl-2 on ILC2s” value (in vivo data) was “unaffected”, the “GATA-3 expression in ILC2s” value (isolated lung ILC2s, IL-33) was “significantly inhibits” and the “proliferation rate of pulmonary ILC2s (Ki-67 levels)” value (isolated lung ILC2s, IL-33) was “significantly decreased”. For the same molecule, the “NF-κB p65 expression in ILC2s” value (lung ILC2s from mice challenged with IL-33) was “reduced” and the “phosphorylated IKKα/β (Ser176/180) expression in ILC2s” value (lung ILC2s stimulated with IL-33, 24 hours) was “reduced”.
